Data reported in ChEMBL document CHEMBL3351436, “Structure-activity studies of (-)-epigallocatechin gallate derivatives as HCV entry inhibitors” (Bioorg Med Chem Lett, 2014).
Active and inactive are the calls of the source. No cut-off for these calls is given here.

How the values were obtained:
Hepatitis C virus [1] = experiment: Antiviral activity against HCV genotype 1a assessed as inhibition of viral entry into Huh7 cells treated for 2 hr followed by 28 hrs incubation period in compound-free medium by immunofluorescence assay; format: functional, cell-based, Hepacivirus hominis; settings: subtype 1a, Huh-7
[2] = Cytotoxicity against human HuH7 cells assessed as reduction cell viability up to 1 mM after 48 to 72 hrs by MTS assay; format: cell-based; settings: huh-7
Hepatitis C virus [3] = experiment: Antiviral activity against HCV genotype 1a assessed as inhibition of viral entry into Huh7 cells treated at 50 uM for 2 hr followed by 28 hrs incubation period in compound-free medium by immunofluorescence assay; format: functional, cell-based; settings: Hepacivirus hominis, subtype 1a, Huh-7

Row | Compound | IC50 (Hepatitis C virus [1]) [µM] | Activity [2] | inhibition (Hepatitis C virus [3])
1 | O=C(O[C@@H]1Cc2c(O)cc(O)cc2O[C@@H]1c1cc(O)c(O)c(O)c1)c1ccccc1 | 27 | Non-toxic | Active
2 | O=C(O[C@@H]1Cc2c(O)cc(O)cc2O[C@H]1c1cc(O)c(O)c(O)c1)c1cc(O)c(O)c(O)c1 | – | – | Active
3 | O=C(O[C@@H]1Cc2c(O)cc(O)cc2O[C@@H]1c1cc(O)c(O)c(O)c1)c1cc(O)c(O)c(O)c1 [EPIGALOCATECHIN GALLATE] | 20 | – | Active
4 | CC1Oc2ccc(C#N)cc2C=C1C(=O)N[C@H]1CC[C@@H](N)CC1 (some centres undefined) | – | – | inactive
5 | CC1Oc2ccc(C#N)cc2C=C1C(=O)NC1CCNCC1 (centres undefined) | – | – | inactive
6 | O=C(O[C@@H]1Cc2c(O)cc(O)cc2O[C@@H]1c1cc(O)c(O)c(O)c1)c1ccc(F)c(F)c1 | 6.9 | Non-toxic | Active
7 | O=C(O[C@@H]1Cc2ccccc2O[C@@H]1c1ccccc1)c1cc(O)c(O)c(O)c1 (racemic) | – | – | inactive
8 | O=C(O[C@H]1Cc2c(O)cc(O)cc2O[C@@H]1c1ccccc1)c1cc(O)c(O)c(O)c1 (racemic) | – | – | inactive
9 | O=C(O[C@@H]1Cc2c(O)cc(O)cc2O[C@@H]1c1cc(O)c(O)c(O)c1)c1ccncc1 | – | – | inactive
